Question: With `CCCc1c(OCCCCCc2nnn[nH]2)ccc(C(C)=O)c1O` as the compound, how does the melting point read?
Answer: Its melting point is 95 to 96 °C.

Question: With `CCOC(=O)CCc1cc(-c2ccccc2)n(-c2ccc(S(C)(=O)=O)cc2)n1` as the compound, how does the melting point read?
Answer: The melting point was 96.5 to 99.1 °C.

Question: With `COC(=O)c1c(C)nc(-c2ccccc2)nc1-c1cccc([N+](=O)[O-])c1` as the compound, how does the melting point read?
Answer: Its melting point is 128 to 130 °C.

Question: For `O=C(Nc1ccc(N2CCN(Cc3ccccc3)CC2)cc1)c1ccccc1-c1ccccc1`, which melting point is on record?
Answer: Its melting point is 162 °C.

Question: Which melting point does the source give for `O=C1CCCN1S(=O)(=O)c1ccc2ccccc2c1` here?
Answer: The melting point was 118 to 120 °C.

Question: Which melting point does the source give for `Cc1ccn(C)c(=S)n1` here?
Answer: Its melting point is 138 to 140 °C.

Question: Which melting point does the source give for `COc1c(Cc2ccccc2)cc(C(=O)c2cccs2)c2ccccc12` here?
Answer: The melting point was 111 to 113 °C.

Question: With `COC(=O)c1ccc(OCCNC(=O)C2Cc3ccccc3N2S(=O)(=O)c2ccc(-c3ccc(F)cc3)cc2)cc1F` (stereo not given) as the compound, how does the melting point read?
Answer: Its melting point is 77 to 81 °C.

Question: For `OCCC1(S)C2CC3CC(C2)CC1C3` (stereo not given), which melting point is on record?
Answer: Its melting point is 68 to 70 °C.

Question: For `CCn1nc(C(C)(C)C)c2c1C(=O)NCC(c1ccc(O)cc1)=N2`, which melting point is on record?
Answer: The melting point was 264 °C.

Question: With `CCOC(=O)C=CC=Cc1ccc(C=Cc2nc(-c3ccco3)oc2C)cc1` as the compound, how does the melting point read?
Answer: Its melting point is 155 to 156 °C.

Question: Which melting point does the source give for `C=C(C)COc1ccc(Br)cc1CN(CC)c1ccc(-c2nnco2)nn1` here?
Answer: The melting point was 90 to 92 °C.

Question: For `COc1ccc(C2CCN(C(=O)Nc3ccc4cc(CN5CCCC5)cnc4c3)CC2)cc1`, which melting point is on record?
Answer: Its melting point is 241 to 243 °C.

Question: Which melting point does the source give for `COc1ccc2c(c1OCc1ccccc1)CC(C(=O)O)N(C(=O)C(c1ccc(Cl)cc1)c1ccc(Cl)cc1)C2` (racemic) here?
Answer: The melting point was 186 to 188 °C.

Question: For `O=C1CCC(N2Cc3c(OCc4ccc(CN5CCN(C(=O)C6CCCCC6)CC5)cc4)cccc3C2=O)C(=O)N1` (stereo not given), which melting point is on record?
Answer: Its melting point is 215 to 217 °C.

Question: With `Clc1ccc(-c2nc(-n3ccnc3)oc2CCC2=NCCO2)cc1` as the compound, how does the melting point read?
Answer: The melting point was 120 to 121 °C.

Question: Which melting point does the source give for `O=C1OCCC=C1c1ccc(F)c(F)c1` here?
Answer: The melting point was 72 to 78 °C.

Question: For `CCCc1c(OCC2CO2)ccc(C(C)=O)c1O` (stereo not given), which melting point is on record?
Answer: Its melting point is 53 to 55 °C.

Question: For `COCc1nc2c(OC)ccc(C(=O)Cc3ccncc3)c2[nH]1`, which melting point is on record?
Answer: Its melting point is 218 to 220 °C.

Question: For `N#Cc1ccccc1NC1=CC(=O)CCC1`, which melting point is on record?
Answer: The melting point was 206 °C.

Question: For `CCOC1c2ccccc2-c2nccnc21` (stereo not given), which melting point is on record?
Answer: Its melting point is over 300 °C.

Question: For `CC(C)(C)OC(=O)Nc1ccccc1NC(=O)c1ccc(C(=O)Nc2cccc(Nc3nc(-c4cccnc4)cs3)c2)cn1`, which melting point is on record?
Answer: The melting point was 220 to 222 °C.

Question: For `COc1ccc(C(O)c2cccc(OCc3ccc4ccccc4n3)c2)cc1` (stereo not given), which melting point is on record?
Answer: The melting point was 70 to 80 °C.

Question: For `Cc1ncc(C(=O)NCCOCCO[N+](=O)[O-])s1`, which melting point is on record?
Answer: Its melting point is 47 to 48 °C.

Question: Which melting point does the source give for `Nc1cn2cc(Sc3ccccc3)ccc2n1` here?
Answer: Its melting point is 110 to 112 °C.

Question: Which melting point does the source give for `COCCNC(=O)c1nc(C(=O)OC)c2cc(Cc3ccc(F)cc3)cnc2c1OCc1ccccc1` here?
Answer: Its melting point is 94 °C.

Question: For `CC(C)(C)c1ccc2c(c1)OCC(NNc1ncnc3c1ncn3C1OC(CO)C(O)C1O)C2` (stereo not given), which melting point is on record?
Answer: Its melting point is 88 to 90 °C.

Question: Which melting point does the source give for `Cc1ccc2c(c1)C(C(=O)Nc1c(C)cccc1C)c1ccccc1CO2` (stereo not given) here?
Answer: The melting point was 162 to 163 °C.

Question: For `CCCOC(=O)C1=C(C)NC(C=O)=C(C(=O)OC)C1c1ccccc1C#N` (stereo not given), which melting point is on record?
Answer: The melting point was 138 to 141 °C.

Question: Which melting point does the source give for `Clc1nsnc1N1CCOCC1` here?
Answer: Its melting point is 43 to 45 °C.

Question: For `Clc1cccc(N2CCN(CCCCOc3ccc4cn[nH]c4c3)CC2)c1Cl`, which melting point is on record?
Answer: The melting point was 101 to 103 °C.

Question: Which melting point does the source give for `CCOC(=O)Cc1c(CCc2ccc(OC)cc2)oc2ccc(C#N)cc12` here?
Answer: The melting point was 85 to 86 °C.

Question: For `CCCCCN(CCC12CC3CC(CC(C3)C1)C2)C(=O)NCCCn1ccnc1`, which melting point is on record?
Answer: Its melting point is 97 to 100 °C.

Question: With `COc1cc(C(=O)c2ccc(C(F)(F)F)cc2)ccc1O` as the compound, how does the melting point read?
Answer: Its melting point is 97 °C.

Question: With `Cc1nn(-c2cc(Oc3ccc([N+](=O)[O-])cc3)c(Cl)cc2Cl)c(=O)n1C(F)F` as the compound, how does the melting point read?
Answer: The melting point was 99 to 101 °C.

Question: For `COC(=O)c1ccc(N2CCC[C@H](N(Cc3cc(C(F)(F)F)cc(C(F)(F)F)c3)c3nnn(C)n3)c3cc(C)c(C(F)(F)F)cc32)cc1`, which melting point is on record?
Answer: Its melting point is 101 to 105 °C.

Question: Which melting point does the source give for `Cc1c(F)c(F)c(C(=O)NC2CCCCC2C)c(F)c1F` (stereo not given) here?
Answer: The melting point was 202 to 204 °C.

Question: Which melting point does the source give for `CC(C)Cn1nnc(-c2cccc(-c3ccnc4c(C(=O)c5cccs5)cnn34)c2)n1` here?
Answer: Its melting point is 141 °C.

Question: With `CC(=O)Oc1ccc(-c2cnc(N)c(Cc3ccccc3)n2)cc1` as the compound, how does the melting point read?
Answer: Its melting point is 184 to 186 °C.

Question: Which melting point does the source give for `COc1ccc(N2CCN(c3c(C)c(C)c4c(c3C)C(c3cccnc3)C(C)(C)O4)CC2)cc1` (stereo not given) here?
Answer: The melting point was 159 to 161 °C.

Question: Which melting point does the source give for `COC(=O)Cc1coc2cc(C(=O)NC(C(=O)NCc3ccccc3)c3ccccc3)ccc12` (stereo not given) here?
Answer: The melting point was 129 to 131 °C.

Question: With `COc1ccc(-c2cn3ccccc3n2)cc1OC` as the compound, how does the melting point read?
Answer: The melting point was 96 °C.

Question: For `CON(O)C(=O)c1ccccc1`, which melting point is on record?
Answer: The melting point was 58 to 60 °C.

Question: Which melting point does the source give for `O=[N+]([O-])c1ccc(O)c(-c2cccs2)c1` here?
Answer: The melting point was 130 °C.

Question: With `Cc1ccccc1C=CCC(C(=O)C=Cc1ccc(Cl)cc1)c1ccccc1` (stereo not given) as the compound, how does the melting point read?
Answer: Its melting point is 60 to 76 °C.

Question: For `CCCCCCC(NS(=O)(=O)c1ccc(Cl)cc1)C(=O)Nc1ccc(CC(=O)O)cc1` (racemic), which melting point is on record?
Answer: The melting point was 192 to 193 °C.

Question: With `CSc1noc(-c2ccc(OCCOc3ccc([N+](=O)[O-])cc3)cc2)c1C#N` as the compound, how does the melting point read?
Answer: Its melting point is 170 to 171 °C.

Question: With `Cc1noc(NS(=O)(=O)c2ccccc2-c2ccccn2)c1C` as the compound, how does the melting point read?
Answer: Its melting point is 136 to 137 °C.

Question: With `CCOc1nc2ccccc2nc1NC(=O)N1CCN(C(c2ccccc2)c2ccccc2)CC1` as the compound, how does the melting point read?
Answer: Its melting point is 156 to 158 °C.

Question: With `CN(C(=O)c1ccc2cnccc2n1)C1CCCCC1` as the compound, how does the melting point read?
Answer: The melting point was 62 to 63 °C.

From a melting point compilation (Tetko et al.; mined from patent text by program, amines drawn as free bases though some values may be those of a salt)
